Source: patent US9128081B2, “TDP-43-storing cell model” (TOKYO METROPOLITAN INSTITUTE OF MEDICAL SCIENCE, priority 2008, dated 2015)
“Also recorded” adds a separate entry of the source. Where a SMILES comes first, the peptide text is derived from it. The star is where a group is joined. Cbz = O=C(OCc1ccccc1)*

What was measured:
Format in all cases: cell-based, human
[1] = test system: SH-SY5Y cells expressing pEGFP-TDP 162-414 (GFP-TDP 162-414); assay: Suppression of formation of intracellular TDP-43 inclusions by low-molecular compounds (GFP-TDP 162-414); settings: enhanced concentration-dependently, 3 days after addition
Description: (§1) The cell used was human neuroblast cell line SH-SY5Y, while pEGFP-TDP 162-414 (GFP-TDP 162-414) and pcDNA3-TDP delta NLS1&2 (TDP delta NLS1&2) which gave more significant formation of intracellular inclusions among various TDP-43 mutants were used to search for an inhibitor for the above-described inclusion formation.
(§2) Gene transfection into SH-SY5Y cell was carried out according to the method described in “Cultivation of SH-SY5Y cell and integration of plasmid vector” above, where 1 μg of each of the various plasmids was transfected into the cell with three-fold volume of a transfection reagent (FuGENE6: 3 μl).
Treatment with a candidate inhibitor took place two hours after gene transfection. As candidate inhibitors, methylene blue and dimebon were examined. […] The concentrations of methylene blue were determined to take the above concentrations by considering the concentration conditions that have no damage on cell proliferation. On the other hand, the concentrations of dimebon were determined by referring to a publication (Jun Wu et al., Molecular Neurodegeneration, 2008, vol. 3, p. 15), and the preparation method (suspension in sterile water) was carried out according to the instruction provided by the reagent supplier. […]
Fluorescence-Labeled Secondary Antibody: • Alexa-568-labeled anti-mouse IgG (1:500 dilution) […]

[2] = test system: SH-SY5Y cells expressing pcDNA3-TDP delta NLS1&2 (TDP delta NLS1&2); assay: Suppression of formation of intracellular TDP-43 inclusions by low-molecular compounds (TDP delta NLS1&2); settings: enhanced concentration-dependently, 3 days after addition
Description: as §1, §2
Treatment with a candidate inhibitor took place two hours after gene transfection. […] The concentrations of methylene blue were determined to take the above concentrations by considering the concentration conditions that have no damage on cell proliferation. On the other hand, the concentrations of dimebon were determined by referring to a publication (Jun Wu et al., Molecular Neurodegeneration, 2008, vol. 3, p. 15), and the preparation method (suspension in sterile water) was carried out according to the instruction provided by the reagent supplier. […]
Fluorescence-Labeled Secondary Antibody: • Fluorescein isothiocyanate (FITC)-labeled anti-rabbit IgG (Sigma, 1:500 dilution) • Alexa-568-labeled anti-mouse IgG (1:500 dilution) […]

[3] = test system: SH-SY5Y cells expressing NLS2-deficient mutant TDP-43; assay: Protease inhibitor treatment of NLS2-deficient mutant-expressing cells, confocal laser microscope; settings: inhibitor 20 μM, 6 hours; for inclusion formation / expression pattern, anti-TARDBP staining: 37° C.
Description: (§3) Each of the above-described various plasmid vectors (pcDNA3 or pEGFP system, 1 μg) was integrated into SH-SY5Y cell using FuGENE6 transfection reagent (Roche Diagnostics). FuGENE6 at 3-fold volume of the total plasmid amount was mixed with the plasmid, left to stand at room temperature for 15 minutes, and then mixed with the cell solution. The resultant was cultured for 2-3 days, and used for preparation of cell lysates or immunohistological staining.
(§4) SH-SY5Y cells cultured on glass covers were mixed with each of the various expression vectors (1 μg) and added in the presence of FuGENE6. After two days of cultivation, cell immobilization or protease inhibitor treatment was carried out. In the protease inhibitor treatment, a final concentration of 20 μM of MG132 (proteasome inhibitor) or carbobenzoxy-leucyl-leucinal (zLL: calpain inhibitor) was added to the cell, and cultured at 37° C. for 6 hours. Thereafter, the cell was immobilized in a 4% paraformaldehyde solution. […] After washing with 50 mM Tris-HCl containing 0.05% Tween 20 and 150 mM NaCl (pH 7.5) (TBS-T), the cell was caused to react with a fluorescence-labeled secondary antibody at 37° C. for an hour. […] The resultant was sealed on a glass slide, and then analyzed with a confocal laser microscope (Carl Zeiss).
(§5) The primary antibody and the fluorescence-labeled secondary antibody used were as follows. • Primary antibody: • anti-TARDBP (ProteinTech, 1:1000 dilution); • anti-pS409/410 (antibody (antibody that specifically binds to TDP-43 aggregates) obtained by using, as an antigen, a peptide in which Ser residues at positions 409 and 410 of TDP-43 are both phosphorylated, 1:500 dilution); • anti-ubiquitin (MAB1510, CHEMICON, 1:500 dilution) • Fluorescence-labeled secondary antibody: • FITC-labeled anti-rabbit IgG (anti-rabbit immunoglobulin, FITC-labeled, Product number: F9887, Sigma, 1:500 dilution); • rhodamine-labeled anti-mouse IgG (anti-mouse immunoglobulin, TRITC-labeled, Product number: T2402, Sigma, 1:500 dilution) […]

[4] = test system: SH-SY5Y cells expressing NLS1-deficient mutant TDP-43; assay: Protease inhibitor treatment of NLS1-deficient mutant-expressing cells, confocal laser microscope; settings: inhibitor 20 μM, 6 hours; for inclusion formation, anti-pS409/410 staining: inclusion diameter about 10 μm
Description: as §3, §4, §5

[5] = test system: SH-SY5Y cells expressing wild-type TDP-43; assay: Protease inhibitor treatment of wild-type TDP-43-expressing cells, confocal laser microscope; settings: inhibitor 20 μM, 37° C., 6 hours
Description: as §3
as §4, with “Zeiss). […]” for “Zeiss).”

[6] = methylene blue 0.05 μM, FIGS. 19 and 20

## CN(C)c1ccc2nc3ccc(=[N+](C)C)cc-3sc2c1 [methylene blue]
[1]; [6]
  inhibition effect on formation of intracellular TDP-43 inclusions: inhibition effect of methylene blue was confirmed
[2]; [6]
  inhibition effect on formation of intracellular TDP-43 inclusions: inhibition effect of methylene blue was confirmed

## Cc1ccc2c(c1)c1c(n2CCc2ccc(C)nc2)CCN(C)C1 [dimebon]
[1]; dimebon 20 μM, FIGS. 21 and 22
  inhibition effect on formation of intracellular TDP-43 inclusions: inhibition effect of dimebon was also confirmed
[2]; dimebon 20 μM, FIGS. 21 and 22
  inhibition effect on formation of intracellular TDP-43 inclusions: inhibition effect of dimebon was also confirmed

## CC(C)C[C@@H](C=O)NC(=O)[C@H](CC(C)C)NC(=O)OCc1ccccc1 [zLL, carbobenzoxy-leucyl-leucinal]
[3]
  inclusion formation / expression pattern, anti-TARDBP staining: no particular change was found in the expression pattern
[4]
  inclusion formation, anti-pS409/410 staining: no intracellular inclusion was observed

## CC(C)C[C@@H](C=O)NC(=O)[C@H](CC(C)C)NC(=O)[C@H](CC(C)C)NC(=O)OCc1ccccc1 [MG132] (Cbz-Leu-Leu-Leu-aldehyde)
[5]
  inclusion formation, anti-TARDBP staining: did not show significant difference from MG132-free cases
[3]
  inclusion formation / expression pattern, anti-TARDBP staining: inclusions were found in the nucleus
[3]; inclusion diameter about 10 μm
  inclusion formation, anti-pS409/410 and anti-ubiquitin staining: emergence of intranuclear inclusions positive to both anti-pS409/410 and anti-ubiquitin
[4]; 37° C.
  inclusion formation, anti-TARDBP staining: did not show significant difference from MG132-free cases; also recorded: cytoplasmic inclusions were not observed
[4]
  inclusion formation, anti-pS409/410 staining: anti-pS409/410-positive cytoplasmic inclusions were observed
